Key:
Type in all cases: in vivo, hamster (Golden Syrian)
[1] = tested on: free choice fed hamsters (diet-induced NASH hamster model of HFpEF); experiment: Echocardiography (left ventricular function and dimensions) in diet-induced NASH hamster model of HFpEF; conditions: for cardiac parameters (overall conclusion): diet-induced NASH hamster model, end of 5-week treatment period
From the text: Animals. Male hamsters (Golden Syrian), 4-week-old at receipt, were acclimated at least 5 days before the beginning of the study. Control animals were fed with a chow diet with normal tap water. For diet-induced NASH model, animals were fed with a free choice diet consisting of (a) a chow diet with normal water and (b) a high fat/cholesterol diet with 10% fructose enriched tap water. Food and water intake have been measured once a week. Dosage regimen and test groups. Animals were divided into 5 groups: [table] The study was conducted over 20 weeks. Treatments were administered from week 15 until the end of the experiment (duration 5 weeks), once a day, per os, at a rate of 10 ml/kg. Water was used as vehicle. Vardenafil was used as reference compound. Echocardiography. Left ventricular function and dimensions were assessed 14 and 20 weeks after the start of diet using two-dimensional echocardiograph (VF16-5 probe, Siemens, Acuson NX3 Elite). Numeric images of the heart were obtained in parasternal long and short-axis views using or not time motion for systolic function and in apical four chambers view with doppler mode for diastolic function. Heart rate, left ventricular end-diastolic and end-systolic diameters and volumes, as well as posterior and anterior wall thicknesses in diastole and systole, mitral flow velocity (E and A waves), the isovolumic relaxation time (IVRT), and annular tissue velocity of the mitral valve (e′ and a′ peaks) were measured. Left ventricular ejection fraction, fractional shortening, E/A ratio and E/E′ ratio were then calculated. Data analysis. All graphs represent means±standard error of mean (sem). Statistical analysis has been performed using GraphPad Prism 5 software. Single comparisons were made using Student's unpaired t-test or Mann Whitney in case of significant variance. Multiple comparisons have been carried out with two-way ANOVA followed by post-hoc Bonferroni test or one-way ANOVA followed by post-hoc Dunnett or Kruskall-Wallis test in case of significant variance. For all tests, p<0.05 was considered significant.

[2] = tested on: free choice fed hamsters (diet-induced NASH hamster model of HFpEF); experiment: Body weight, food and water intake in diet-induced NASH hamster model of HFpEF; conditions: treatment once a day per os from week 15, 5 weeks (compound 001 600 mg/kg, vardenafil 10 mg/kg), FIG. 5
From the text: (§1) Animals. Male hamsters (Golden Syrian), 4-week-old at receipt, were acclimated at least 5 days before the beginning of the study. Control animals were fed with a chow diet with normal tap water. For diet-induced NASH model, animals were fed with a free choice diet consisting of (a) a chow diet with normal water and (b) a high fat/cholesterol diet with 10% fructose enriched tap water. Food and water intake have been measured once a week. Dosage regimen and test groups. Animals were divided into 5 groups: [table] The study was conducted over 20 weeks. Treatments were administered from week 15 until the end of the experiment (duration 5 weeks), once a day, per os, at a rate of 10 ml/kg. Water was used as vehicle. Vardenafil was used as reference compound. Data analysis. All graphs represent means±standard error of mean (sem). Statistical analysis has been performed using GraphPad Prism 5 software. Single comparisons were made using Student's unpaired t-test or Mann Whitney in case of significant variance. […] During 20 weeks of diet including 5 weeks under treatment with vehicle, compound 001, vardenafil or both, body weight, food and water intake were recorded once a week. Blood was collected at week 14 and week 20 to measure plasma insulin, glucose and ALT/AST, and NT-pro BNP level was evaluated at week 20. Echocardiographic studies were assessed at week 14 and week 20. […]

[3] = tested on: free choice fed hamsters (diet-induced NASH hamster model of HFpEF); experiment: Biochemical analysis (glucose, plasma insulin, ALT/AST, NT pro-BNP) in diet-induced NASH hamster model of HFpEF
From the text: Animals. Male hamsters (Golden Syrian), 4-week-old at receipt, were acclimated at least 5 days before the beginning of the study. Control animals were fed with a chow diet with normal tap water. For diet-induced NASH model, animals were fed with a free choice diet consisting of (a) a chow diet with normal water and (b) a high fat/cholesterol diet with 10% fructose enriched tap water. Food and water intake have been measured once a week. Dosage regimen and test groups. Animals were divided into 5 groups: [table] The study was conducted over 20 weeks. Treatments were administered from week 15 until the end of the experiment (duration 5 weeks), once a day, per os, at a rate of 10 ml/kg. Water was used as vehicle. Vardenafil was used as reference compound. Biochemical analysis. After 14 and 20 weeks of diet, blood was collected through tail vein, saphenous vein or retro orbital sinus after a 6 h fasting period to measure respectively glucose, plasma insulin and ALT/AST. After 20 weeks of diet, blood was collected and centrifuged to obtain plasma which was used to measure NT pro-BNP in plasma. Data analysis. All graphs represent means±standard error of mean (sem). Statistical analysis has been performed using GraphPad Prism 5 software. Single comparisons were made using Student's unpaired t-test or Mann Whitney in case of significant variance. Multiple comparisons have been carried out with two-way ANOVA followed by post-hoc Bonferroni test or one-way ANOVA followed by post-hoc Dunnett or Kruskall-Wallis test in case of significant variance. For all tests, p<0.05 was considered significant.

[4] = tested on: free choice fed hamsters (diet-induced NASH hamster model of HFpEF); experiment: Organ weights (heart, liver, lungs), normalized or not to tibia length, in diet-induced NASH hamster model of HFpEF; conditions: normalized to tibia length; after 20 weeks of diet including 5 weeks of treatment per os (compound 001 600 mg/kg, vardenafil 10 mg/kg); FIG. 11
From the text: as §1

Compound: NC(=O)c1ccc[n+]([C@@H]2O[C@H](COP(=O)([O-])O)[C@@H](O)[C@H]2O)c1 [compound 001, nicotinamide mononucleotide]
- cardiac parameters (overall conclusion) [1]: improved most of cardiac parameters
- cardiac parameters (overall conclusion) ([1]; listed as NMN): improve cardiac parameters
- diastolic function ([1]; echocardiography after 20 weeks of diet including 5 weeks of treatment per os (compound 001 600 mg/kg, vardenafil 10 mg/kg)): improved diastolic function
- E/A ratio ([1]; echocardiography after 20 weeks of diet including 5 weeks of treatment per os (compound 001 600 mg/kg, vardenafil 10 mg/kg), vs free choice vehicle, FIG. 8A): significant decrease in E/A ratio
- E′/A′ ratio ([1]; echocardiography after 20 weeks of diet including 5 weeks of treatment per os (compound 001 600 mg/kg, vardenafil 10 mg/kg), vs free choice vehicle, FIG. 8B): increased E′/A′ ratio
- E/E′ ratio ([1]; echocardiography after 20 weeks of diet including 5 weeks of treatment per os (compound 001 600 mg/kg, vardenafil 10 mg/kg), vs free choice vehicle, FIG. 8D): E/E′ ratio decreased
- isovolumic relaxation time (IVRT) ([1]; echocardiography after 20 weeks of diet including 5 weeks of treatment per os (compound 001 600 mg/kg, vardenafil 10 mg/kg), vs free choice vehicle, FIG. 8E): increased to normal levels
- body weight / body weight gain [2]: significant decrease in body weight
- plasma insulin levels ([3]; week 20, after 5 weeks of treatment per os (compound 001 600 mg/kg, vardenafil 10 mg/kg), FIG. 9C): tended to increase plasma insulin levels
- HOMA-IR index ([3]; week 20, after 5 weeks of treatment per os (compound 001 600 mg/kg, vardenafil 10 mg/kg), FIG. 9E): tended to increase plasma insulin levels and HOMA-IR index
- plasma AST ([3]; week 20, after 5 weeks of treatment per os, 600 mg/kg, FIG. 9B): tendency to restore plasma AST
- lung oedema (difference between wet and dry lung weight) [4]: non significantly reduced

— US20240382511A1, “NICOTINAMIDE MONONUCLEOTIDE DERIVATIVES AND USE THEREOF FOR THE TREATMENT OF HEART FAILURE WITH PRESERVED EJECTION FRACTION” (NUVAMID SA, priority 2021, published 2024)
